Where no end group is shown, it is not given here. [ ]: non-standard residue; d: D form. Nva = CCC[C@H](N)C(=O)O
Key:
D2.mdx mice [1] = assay: Hippocampal cytokine mRNA by quantitative PCR; assay type: in vivo, mouse; details: 15 mg/kg daily
Procedure: Male D2.mdx mice originated from a colony maintained at York University (Toronto, Canada) and sourced from Jackson Laboratories (Stock Number 013141, Bar Harbor, United States). Mice were treated daily from days 7 to 28 of age with ALY688 at 15 mg/kg b.w. (D2.mdx-ALY688) or saline control (D2.mdx-VEH). This age was chosen given it captures an early stage of disease progression in cardiac and skeletal muscle. Mice were sacrificed 20-24 hr after the last dose. Breeding of wildtype mice was unsuccessful. […]
Total RNA was isolated from hippocampus using the Aurum Total RNA Mini Kit (Bio-Rad; Mississauga, ON, Canada) according to manufacturer's instructions, and reverse transcribed into cDNA by M-MLV reverse transcriptase and oligo (dT) primers (Qiagen). cDNA was then amplified in a CFX384 Touch Real-Time PCR Detection Systems (Bio-Rad) with a SYBR Green master mix and specific primers. Gene expression was normalized to a Rplp0 control and relative differences were determined using the ΔΔCt method (Livak, K. J., & Schmittgen, T. D. (2001). Analysis of relative gene expression data using real-time quantitative PCR and the 2(-Delta Delta C(T)) Method. Methods, 25 (4), 402-408. doi: 10.1006/meth.2001.1262), normalized to D2A expression. […]

D2.mdx mice [2] = assay: Mitochondrial respiration in permeabilized muscle fibre bundles; assay type: in vivo, mouse; details: quadriceps and diaphragm; multiple substrate conditions; LD and HD
Procedure: D2.mdx mice were treated with ALY688 at two different dosages; high dose (HD; 15 mg/kg body weight/day) or low dose (LD; 3 mg/kg body weight/day) dissolved in saline. A separate group of mice were treated with saline alone (VEH, vehicle). Treatment was provided via subscapular subcutaneous injections from 7 days of age to 28-30 days. […] At 28-30 days of age, mice were anaesthetized with isoflurane vaporized in medical air (21% oxygen) at a 2 L/min flow rate. Due to tissue limitations in limb muscle, certain measures were performed separately in tibialis anterior and quadriceps across several phases of breeding. Following the treatment protocol, in situ quadriceps force assessments were then performed in one limb followed by removal of the quadriceps from the other limb for mitochondrial assessments, diaphragm for in vitro force assessments and finally other tissues for further processing as described below. […]
High resolution oxygen consumption (an index of mitochondrial respiration) was performed in 2 mL of MiRO5 supplemented with (creatine-dependent) or without (creatine independent) 20 mM creatine to saturate mitochondrial creatine kinase activity. O2 consumption was measured using the Oroboros Oxygraph-2K (Oroboros Instruments, Corp., Innsbruck, Austria) while stirring at 37° C. in the presence of 5 μM blebbistatin to prevent muscle fibre contraction by rigor in response to ADP. […]

Substance: [dN]IP[Nva]LY[dS]FA[dS]-NH2 [ALY688]
- hippocampal mRNA of IL-6, TNF-α or IL-10 (D2.mdx mice [1]): No significant changes
- ADP-stimulated respiration (D2.mdx mice [2]): generally no effect of either dose
